Measurements published in US20130040331A1, “LABEL-FREE METHODS RELATED TO hERG POTASSIUM ION [sequence]” (CORNING INCORPORATED, priority 2009, published 2013).

What was measured:
[1] = test system: HT29 cells; test: Label-free RWG biosensor (Epic) DMR assay, agonism mode, HT29 cells endogenously expressing hERG; type: cell-based, human
Experimental: Epic® wavelength interrogation system (Corning Inc., Corning, N.Y.) was used for whole cell sensing. This system consists of a temperature-control unit, an optical detection unit, and an on-board liquid handling unit with robotics. The detection unit is centered on integrated fiber optics, and enables kinetic measures of cellular responses with a time interval of ˜15 sec.
Cells were plated in 384-well Epic® cell culture treated plate (Corning Cat#5040) 16-20 hours before assay (15000 cells/well for HEK293 and HEK-hERG cells, 30000 cells/well for HT29 cells). For both HEK-hERG and its parental HEK293 cells, each well was coated with 10 μl 5 μg/ml fibronectin. One hour before assay, cells were washed twice on a BioTek ELx405 Select washer with Hank's Balanced Salt Solution (HBSS) containing 20 mM Hepes. Cells were incubated in 40 μl/well HBSS at 28° C. inside the Epic system for one hour. For each assay, a 2-min baseline was initiated, followed by addition of 10 μl compound solutions (5×) and the cell responses were recorded continuously for one hour.
All studies were carried out at a controlled temperature (28° C.). At least two independent sets of experiments, each with at least three replicates, were performed. […] All dose-dependent responses were analyzed using non-linear regression method with the GraphPad Prism 5.
Three different types of cells: human colon cancerous cell line HT-29, HEK293 and its engineered HEK-hERG cell lines were used. HT-29 is known to endogenously express hERG channels. HEK293 is a native cell line without endogenously expressed hERG channels, while HEK-hERG is an engineered HEK293 cells having stably expressed hERG channels. Mallotoxin, a newly discovered hERG activator, was used to activate hERG channels at or near physiological conditions (i.e., 1×HBSS buffered conditions).

[2] = test system: hERG channel or hERG-associated signaling complex; test: Classification of hERG modulators by label-free biosensor profiles across three cell lines plus mallotoxin modulation index; type: cell-based, human
Source text: The traditional hERG ion channel assay involves assaying ion flux such as Rb^+ flux using ion absorption assays, or assaying hERG currents directly using patch clamping methods. Traditionally, a molecule which causes increase in Rb^+ flux and/or hERG currents is referred to a hERG activator, while a molecule which inhibits Rb^+ flux and/or hERG currents is referred to a hERG inhibitor. […] These hERG activators may or may not result in detectable biosensor signals in cells, using label-free biosensor cellular assays. A hERG activator that results in a detectable biosensor signal in a hERG expressing cell via hERG or hERG signaling complex is also referred to a label-free biosensor hERG activator.
Disclosed are methods of classifying a molecule for modulating hERG activity, comprising the steps: a. incubating a molecule individually with at least three different types of cells consisting of a native cell endogenously expressing hERG, an engineered cell stably expressing hERG and its parental cell without expressing hERG, and b. monitoring the molecule induced cellular response on each cell type with a label-free biosensor cellular assay,
Also disclosed are methods, further comprising as steps c) incubating a label-free biosensor hERG activator with each cell type in the presence of the molecule, d. monitoring the label-free biosensor hERG activator induced cellular response on each cell type in the presence of the molecule, e. generating a biosensor modulation index of the molecule against the label-free biosensor hERG activator induced biosensor signals in the two hERG expressing cell types.
The DMR modulation index was generated by normalizing the mallotoxin DMR signal in either cell line in the presence of compound […] to its corresponding DMR signal in the absence of the compound, and the percentage of modulation was based on the amplitude of the mallotoxin DMR signal at a specific time (−18 min after stimulation for HEK-hERG cells, and ˜50 min after stimulation for HT29 cells, respectively). Mallotoxin is known to display polypharmacology. It is also known to be a protein kinase C (PKC) inhibitor; and PKC is a downstream signaling component of hERG activation. Thus, it would be difficult or almost impossible to assign the mode(s) of action of mallotoxin to be a hERG activator when either cell line is individually assayed with the label-free biosensor (i.e., Epic® system). […] However, combining the primary DMR profiles of a compound across the three cell lines tested with the modulation index of the compound against the mallotoxin responses in both HT29 and […] cells can correctly identify whether the compound is a hERG activator or not. The results shown in FIG. 1 indicate that indeed mallotoxin is a hERG activator; and the activation of hERG can result in detectable biosensor responses in the two hERG expressing cell lines.

Row | SMILES | DMR signal in HT29 cells ([1]; compound at 10 μM) | hERG pathway activity class by label-free biosensor [2] | DMR signal in HT29 cells ([1]; compound at 16 micromolar)
1 | O=C(O)c1ccccc1Nc1cccc(C(F)(F)F)c1 [flufenamic acid] | robust DMR signals | hERG pathway activator | 
2 | CC(=O)c1c(O)c(C)c(O)c(Cc2c(O)c3c(c(C(=O)/C=C/c4ccccc4)c2O)OC(C)(C)C=C3)c1O [mallotoxin] |  | label-free hERG pathway activator | robust DMR signal
